{"source": "paper PMC9851200", "about": "“Multiparameter phenotypic screening for endogenous TFEB and TFE3 translocation identifies novel chemical series modulating lysosome function” (Autophagy, 2022)", "assay_in_all_cases": "biochemical", "format_in_all_cases": "binding", "key": {"[1]": {"biological_target": "T1, cellular kinases of SH-SY5Y cells (Homo sapiens, UniProt Q14680)", "T1 construct": "endogenous in cells; host or cells: SH-SY5Y", "T1 sequence (Q14680 whole entry)": "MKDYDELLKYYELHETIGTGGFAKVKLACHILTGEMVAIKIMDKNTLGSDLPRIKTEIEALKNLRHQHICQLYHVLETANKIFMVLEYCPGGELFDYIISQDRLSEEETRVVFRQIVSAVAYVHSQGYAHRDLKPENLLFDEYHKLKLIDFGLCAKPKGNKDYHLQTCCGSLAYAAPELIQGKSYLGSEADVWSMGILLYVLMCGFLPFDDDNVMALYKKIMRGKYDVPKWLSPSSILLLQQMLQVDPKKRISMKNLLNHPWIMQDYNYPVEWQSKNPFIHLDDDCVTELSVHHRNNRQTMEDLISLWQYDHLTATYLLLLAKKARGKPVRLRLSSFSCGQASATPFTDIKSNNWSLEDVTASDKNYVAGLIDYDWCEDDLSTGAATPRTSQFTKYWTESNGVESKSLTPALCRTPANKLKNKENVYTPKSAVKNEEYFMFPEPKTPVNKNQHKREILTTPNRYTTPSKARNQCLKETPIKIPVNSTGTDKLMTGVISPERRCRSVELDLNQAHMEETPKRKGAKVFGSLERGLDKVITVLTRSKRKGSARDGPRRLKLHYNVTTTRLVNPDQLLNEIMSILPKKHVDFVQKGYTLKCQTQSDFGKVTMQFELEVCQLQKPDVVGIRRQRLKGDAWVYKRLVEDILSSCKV", "details": "2µM; SH-SY5Y cells; Labeling Site Lys2; DLKPENLLFDEYHK; read-out: KiNativ in-cell binding, % Inhibition, MELK", "from_the_text": "(§1) As KINOMEscan is an in vitro assay, and as different cell types have variable kinase expression profiles we sought to determine the kinase binding profile in our SH-SY5Y TFEB-relocalization cell model. […] Bound kinases were pulled down and analyzed by mass spectrometry to determine the in situ kinase binding profile for each compound."}, "[2]": {"biological_target": "T2, cellular kinases of SH-SY5Y cells (Homo sapiens, UniProt P48426)", "T2 construct": "endogenous in cells; host or cells: SH-SY5Y", "T2 sequence (P48426 whole entry)": "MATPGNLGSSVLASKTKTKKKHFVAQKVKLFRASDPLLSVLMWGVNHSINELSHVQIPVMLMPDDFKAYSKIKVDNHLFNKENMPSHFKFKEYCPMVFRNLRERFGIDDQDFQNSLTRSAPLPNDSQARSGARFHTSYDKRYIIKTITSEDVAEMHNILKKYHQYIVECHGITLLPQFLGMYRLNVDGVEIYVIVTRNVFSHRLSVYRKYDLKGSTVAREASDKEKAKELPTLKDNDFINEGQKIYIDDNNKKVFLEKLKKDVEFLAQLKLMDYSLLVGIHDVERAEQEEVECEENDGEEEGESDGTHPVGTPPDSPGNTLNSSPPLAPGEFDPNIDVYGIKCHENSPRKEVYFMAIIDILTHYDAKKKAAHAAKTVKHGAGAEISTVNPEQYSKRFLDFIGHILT", "details": "2µM; SH-SY5Y cells; Labeling Site ATP; AKELPTLKDNDFINEGQK; read-out: KiNativ in-cell binding, % Inhibition, PIP4K2A", "from_the_text": "as §1"}, "[3]": {"biological_target": "cellular kinases of SH-SY5Y cells (Homo sapiens, UniProt P10398)", "sequence (P10398 whole entry)": "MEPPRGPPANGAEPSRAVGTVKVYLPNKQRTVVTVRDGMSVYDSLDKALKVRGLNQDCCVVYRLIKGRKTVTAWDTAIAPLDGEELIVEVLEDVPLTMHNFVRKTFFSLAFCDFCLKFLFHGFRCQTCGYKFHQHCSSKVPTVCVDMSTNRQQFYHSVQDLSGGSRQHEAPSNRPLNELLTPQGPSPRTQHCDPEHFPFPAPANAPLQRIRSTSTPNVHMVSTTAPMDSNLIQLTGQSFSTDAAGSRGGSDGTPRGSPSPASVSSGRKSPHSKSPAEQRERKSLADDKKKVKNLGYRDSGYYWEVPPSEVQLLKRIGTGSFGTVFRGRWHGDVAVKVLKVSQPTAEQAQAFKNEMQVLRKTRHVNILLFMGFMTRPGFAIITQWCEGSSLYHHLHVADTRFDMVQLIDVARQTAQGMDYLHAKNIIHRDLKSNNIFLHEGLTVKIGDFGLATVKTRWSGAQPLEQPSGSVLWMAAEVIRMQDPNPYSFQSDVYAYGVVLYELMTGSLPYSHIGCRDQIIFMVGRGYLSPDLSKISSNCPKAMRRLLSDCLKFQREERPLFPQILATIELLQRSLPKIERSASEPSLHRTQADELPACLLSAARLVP", "details": "2µM; SH-SY5Y cells; Labeling Site Lys2; DLKSNNIFLHEGLTVK; read-out: KiNativ in-cell binding, % Inhibition, ARAF", "from_the_text": "as §1"}, "[4]": {"biological_target": "T3, cellular kinases of SH-SY5Y cells (Homo sapiens, UniProt Q13177)", "T3 construct": "endogenous in cells; host or cells: SH-SY5Y", "details": "2µM; SH-SY5Y cells; Labeling Site Other; KNPQAVLDVLKFYDSNTVK; read-out: KiNativ in-cell binding, % Inhibition, PAK2", "from_the_text": "as §1"}, "[5]": {"biological_target": "T4, cellular kinases of SH-SY5Y cells (Homo sapiens, UniProt P78356)", "T4 construct": "endogenous in cells; host or cells: SH-SY5Y", "details": "2µM; SH-SY5Y cells; Labeling Site ATP; AKDLPTFKDNDFLNEGQK; read-out: KiNativ in-cell binding, % Inhibition, PIP4K2B", "from_the_text": "as §1"}, "[6]": {"biological_target": "cellular kinases of SH-SY5Y cells (Homo sapiens, UniProt P68400)", "details": "2µM; SH-SY5Y cells; labeling site Protein Kinase Domain; peptide GGPNIITLADIVKDPVSR", "from_the_text": "as §1"}, "[7]": {"biological_target": "T5, cellular kinases of SH-SY5Y cells (Homo sapiens, UniProt O14936)", "T5 construct": "endogenous in cells; host or cells: SH-SY5Y", "T5 sequence (O14936 whole entry)": "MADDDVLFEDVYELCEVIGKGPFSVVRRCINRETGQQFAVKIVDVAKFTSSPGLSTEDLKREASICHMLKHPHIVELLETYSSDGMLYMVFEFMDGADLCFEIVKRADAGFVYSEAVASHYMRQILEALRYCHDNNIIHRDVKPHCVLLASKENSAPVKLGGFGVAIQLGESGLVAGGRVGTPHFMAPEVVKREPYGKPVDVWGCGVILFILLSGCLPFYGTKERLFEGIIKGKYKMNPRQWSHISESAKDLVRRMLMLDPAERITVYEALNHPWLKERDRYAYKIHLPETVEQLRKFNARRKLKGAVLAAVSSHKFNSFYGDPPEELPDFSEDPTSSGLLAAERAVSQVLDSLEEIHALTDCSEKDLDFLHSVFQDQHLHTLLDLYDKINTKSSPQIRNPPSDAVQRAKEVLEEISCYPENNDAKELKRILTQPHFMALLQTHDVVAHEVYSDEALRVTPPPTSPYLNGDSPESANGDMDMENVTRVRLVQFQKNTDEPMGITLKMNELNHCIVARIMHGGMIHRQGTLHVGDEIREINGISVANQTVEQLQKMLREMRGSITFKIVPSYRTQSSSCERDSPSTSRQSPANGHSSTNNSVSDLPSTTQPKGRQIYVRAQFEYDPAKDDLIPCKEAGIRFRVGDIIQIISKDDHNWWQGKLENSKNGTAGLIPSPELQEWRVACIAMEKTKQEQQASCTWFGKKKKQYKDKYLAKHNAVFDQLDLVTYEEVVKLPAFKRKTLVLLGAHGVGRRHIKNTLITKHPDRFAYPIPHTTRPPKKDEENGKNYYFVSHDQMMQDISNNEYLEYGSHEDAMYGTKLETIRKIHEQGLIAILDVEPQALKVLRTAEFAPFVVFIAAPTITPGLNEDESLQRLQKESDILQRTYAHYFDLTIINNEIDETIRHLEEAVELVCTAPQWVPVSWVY", "details": "2µM; SH-SY5Y cells; Labeling Site Lys1; ETGQQFAVKIVDVAK; read-out: KiNativ in-cell binding, % Inhibition, CASK", "from_the_text": "as §1"}, "[8]": {"biological_target": "cellular kinases of SH-SY5Y cells (Homo sapiens, UniProt P27448)", "sequence (P27448 whole entry)": "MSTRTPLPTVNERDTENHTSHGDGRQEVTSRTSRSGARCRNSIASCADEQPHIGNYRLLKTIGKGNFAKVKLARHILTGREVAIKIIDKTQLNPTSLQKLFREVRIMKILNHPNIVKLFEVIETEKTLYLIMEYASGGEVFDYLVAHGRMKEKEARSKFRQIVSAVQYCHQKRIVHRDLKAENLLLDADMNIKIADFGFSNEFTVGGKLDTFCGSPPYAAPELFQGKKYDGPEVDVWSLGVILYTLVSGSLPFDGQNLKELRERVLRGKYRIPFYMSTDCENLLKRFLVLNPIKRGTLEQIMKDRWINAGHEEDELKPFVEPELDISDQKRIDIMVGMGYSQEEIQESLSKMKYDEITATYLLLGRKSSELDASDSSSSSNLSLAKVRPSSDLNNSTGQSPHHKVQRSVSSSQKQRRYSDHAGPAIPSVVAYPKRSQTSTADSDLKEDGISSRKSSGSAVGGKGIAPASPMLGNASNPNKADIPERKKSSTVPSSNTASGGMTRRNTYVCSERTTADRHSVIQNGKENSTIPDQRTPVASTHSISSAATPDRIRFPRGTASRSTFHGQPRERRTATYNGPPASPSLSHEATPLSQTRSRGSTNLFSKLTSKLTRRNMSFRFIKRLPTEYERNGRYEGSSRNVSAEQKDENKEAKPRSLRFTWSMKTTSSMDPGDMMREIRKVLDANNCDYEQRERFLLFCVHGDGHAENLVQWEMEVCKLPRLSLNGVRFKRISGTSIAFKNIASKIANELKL", "details": "2µM; SH-SY5Y cells; Labeling Site Lys1; EVAIKIIDKTQLNPTSLQK; read-out: KiNativ in-cell binding, % Inhibition, MARK3", "from_the_text": "as §1"}, "[9]": {"biological_target": "T6, cellular kinases of SH-SY5Y cells (Homo sapiens, UniProt Q8TCG2)", "T6 construct": "endogenous in cells; host or cells: SH-SY5Y", "details": "2µM; SH-SY5Y cells; labeling site ATP; peptide SEEPYGQLNPKWTK", "from_the_text": "as §1"}, "[10]": {"biological_target": "T7, cellular kinases of SH-SY5Y cells (Homo sapiens, UniProt O75063)", "T7 construct": "endogenous in cells; host or cells: SH-SY5Y", "T7 sequence (O75063 whole entry)": "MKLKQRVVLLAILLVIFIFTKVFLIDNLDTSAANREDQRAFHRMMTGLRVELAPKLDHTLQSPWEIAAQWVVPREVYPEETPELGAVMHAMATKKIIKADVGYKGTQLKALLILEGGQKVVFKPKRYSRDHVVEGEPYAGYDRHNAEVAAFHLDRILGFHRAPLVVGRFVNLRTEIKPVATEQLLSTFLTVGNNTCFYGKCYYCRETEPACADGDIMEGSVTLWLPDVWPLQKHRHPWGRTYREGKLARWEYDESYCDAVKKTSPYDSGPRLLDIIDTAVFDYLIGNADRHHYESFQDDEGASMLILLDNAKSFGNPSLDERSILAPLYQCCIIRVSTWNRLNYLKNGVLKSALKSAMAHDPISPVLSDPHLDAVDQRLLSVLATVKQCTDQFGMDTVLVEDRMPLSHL", "details": "2µM; SH-SY5Y cells; Labeling Site ATP; ETEPACADGDIMEGSVTLWLPDVWPLQKHR; read-out: KiNativ in-cell binding, % Inhibition, FAM20B", "from_the_text": "as §1"}, "[11]": {"biological_target": "T8, cellular kinases of SH-SY5Y cells (Homo sapiens, UniProt Q9Y2I7)", "T8 construct": "endogenous in cells; host or cells: SH-SY5Y", "details": "2µM; SH-SY5Y cells; Labeling Site ATP; GGKSGAAFYATEDDRFILK; read-out: KiNativ in-cell binding, % Inhibition, PIKFYVE", "from_the_text": "as §1"}, "[12]": {"biological_target": "T9, cellular kinases of SH-SY5Y cells (Homo sapiens, UniProt Q96GX5)", "T9 construct": "endogenous in cells; host or cells: SH-SY5Y", "T9 sequence (Q96GX5 whole entry)": "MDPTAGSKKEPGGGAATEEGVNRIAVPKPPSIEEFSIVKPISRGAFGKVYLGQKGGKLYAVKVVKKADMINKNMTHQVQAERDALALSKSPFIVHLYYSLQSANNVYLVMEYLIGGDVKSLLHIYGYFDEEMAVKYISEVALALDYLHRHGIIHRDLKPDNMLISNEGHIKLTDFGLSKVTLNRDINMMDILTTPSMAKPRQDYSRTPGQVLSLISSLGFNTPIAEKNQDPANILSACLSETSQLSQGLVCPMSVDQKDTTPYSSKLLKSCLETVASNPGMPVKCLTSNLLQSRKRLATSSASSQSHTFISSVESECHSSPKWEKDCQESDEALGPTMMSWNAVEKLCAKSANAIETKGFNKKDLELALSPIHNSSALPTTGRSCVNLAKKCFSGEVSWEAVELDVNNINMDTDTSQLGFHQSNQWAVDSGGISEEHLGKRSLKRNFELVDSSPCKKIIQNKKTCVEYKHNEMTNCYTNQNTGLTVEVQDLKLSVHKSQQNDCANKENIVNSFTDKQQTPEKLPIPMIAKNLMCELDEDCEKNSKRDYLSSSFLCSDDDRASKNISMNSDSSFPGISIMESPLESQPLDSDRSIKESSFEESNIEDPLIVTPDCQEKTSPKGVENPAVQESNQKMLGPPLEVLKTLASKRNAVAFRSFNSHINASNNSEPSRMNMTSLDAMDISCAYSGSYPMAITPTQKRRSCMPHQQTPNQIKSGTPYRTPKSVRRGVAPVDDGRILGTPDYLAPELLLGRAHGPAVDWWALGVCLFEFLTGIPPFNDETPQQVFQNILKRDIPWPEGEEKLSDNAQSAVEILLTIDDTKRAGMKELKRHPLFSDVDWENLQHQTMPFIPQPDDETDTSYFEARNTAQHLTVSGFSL", "details": "2µM, SH-SY5Y cells, read-out: KiNativ in-cell binding, % Inhibition, MASTL", "from_the_text": "as §1"}, "[13]": {"biological_target": "cellular kinases of SH-SY5Y cells (Homo sapiens, UniProt P78368)", "details": "2µM; SH-SY5Y cells; Labeling Site Lys2; DVKPENFLVGRPGTK; read-out: KiNativ in-cell binding, % Inhibition, CSNK1G2/CK1g2", "from_the_text": "as §1"}, "[14]": {"biological_target": "T10, cellular kinases of SH-SY5Y cells (Homo sapiens, UniProt Q6PHR2)", "T10 construct": "endogenous in cells; host or cells: SH-SY5Y", "details": "2µM; SH-SY5Y cells; labeling site Lys1; peptide EVVAIKCVAK", "from_the_text": "as §1"}, "[15]": {"biological_target": "cellular kinases of SH-SY5Y cells (Homo sapiens, UniProt P19784)", "sequence (P19784 whole entry)": "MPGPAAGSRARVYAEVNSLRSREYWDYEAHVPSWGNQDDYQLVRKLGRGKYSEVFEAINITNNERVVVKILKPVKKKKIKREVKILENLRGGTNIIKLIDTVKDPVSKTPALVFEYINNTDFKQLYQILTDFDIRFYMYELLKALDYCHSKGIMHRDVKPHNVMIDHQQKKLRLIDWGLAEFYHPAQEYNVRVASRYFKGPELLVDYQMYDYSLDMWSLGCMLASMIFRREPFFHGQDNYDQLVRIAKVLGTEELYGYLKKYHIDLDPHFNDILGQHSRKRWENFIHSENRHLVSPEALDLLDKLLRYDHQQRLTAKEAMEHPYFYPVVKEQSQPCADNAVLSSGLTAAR", "details": "2µM; SH-SY5Y cells; labeling site Lys2; peptide DVKPHNVMIDHQQK", "from_the_text": "as §1"}, "[16]": {"biological_target": "cellular kinases of SH-SY5Y cells (Homo sapiens, UniProt Q16584)", "details": "2µM; SH-SY5Y cells; labeling site Lys2; peptide DLKSNNILLLQPIESDDMEHK", "from_the_text": "as §1"}, "[17]": {"biological_target": "cellular kinases of SH-SY5Y cells (Homo sapiens, UniProt O00418)", "details": "2µM; SH-SY5Y cells; Labeling Site ATP; YIKYNSNSGFVR; read-out: KiNativ in-cell binding, % Inhibition, eEF2K", "from_the_text": "as §1"}, "[18]": {"biological_target": "cellular kinases of SH-SY5Y cells (Homo sapiens, UniProt P49840)", "details": "2µM; SH-SY5Y cells; labeling site Lys2; peptide DIKPQNLLVDPDTAVLK", "from_the_text": "as §1"}, "[19]": {"biological_target": "cellular kinases of SH-SY5Y cells (Homo sapiens, UniProt Q13557)", "details": "2µM; SH-SY5Y cells; Labeling Site Lys1; IPTGQEYAAKIINTKK; read-out: KiNativ in-cell binding, % Inhibition, CaMK2d", "from_the_text": "as §1"}, "[20]": {"biological_target": "T11, cellular kinases of SH-SY5Y cells (Homo sapiens, UniProt Q8NB16)", "T11 construct": "endogenous in cells; host or cells: SH-SY5Y", "details": "2µM; SH-SY5Y cells; labeling site Lys1; peptide APVAIKVFK", "from_the_text": "as §1"}, "[21]": {"biological_target": "T12, cellular kinases of SH-SY5Y cells (Homo sapiens, UniProt Q9Y572)", "T12 construct": "endogenous in cells; host or cells: SH-SY5Y", "details": "2µM; SH-SY5Y cells; Labeling Site Lys2; DLKPSNVLLDPELHVK; read-out: KiNativ in-cell binding, % Inhibition, RIPK3", "from_the_text": "as §1"}}, "note": "Read-outs that look alike come from different tables or passages of the source."}
{"smiles": "Cc1cccc(-c2nc(Nc3ccc4ncsc4c3)c3ccccc3n2)n1", "note": "[NK140]", "values": [{"measurement": "inhibition at 2 µM", "setting": "[1]", "result": -40.7, "unit": "%"}, {"measurement": "inhibition at 2 µM", "setting": "[2]", "result": 29.7, "unit": "%"}, {"measurement": "inhibition at 2 µM", "setting": "[3]", "result": 28.7, "unit": "%"}, {"measurement": "inhibition at 2 µM", "setting": "[4]", "result": 42.4, "unit": "%"}, {"measurement": "inhibition at 2 µM", "setting": "[5]", "result": 27.3, "unit": "%"}, {"measurement": "KiNativ in-cell binding, CSNK2A1", "setting": "[6]", "result": 31.0}, {"measurement": "inhibition at 2 µM", "setting": "[7]", "result": 43, "unit": "%"}, {"measurement": "inhibition at 2 µM", "setting": "[8]", "result": 18.5, "unit": "%"}, {"measurement": "KiNativ in-cell binding, PI4K2B", "setting": "[9]", "result": 11.9}, {"measurement": "inhibition at 2 µM", "setting": "[10]", "result": -39.2, "unit": "%"}, {"measurement": "inhibition at 2 µM", "setting": "[11]", "result": 15.6, "unit": "%"}, {"measurement": "inhibition at 2 µM", "setting": "[12]; Labeling Site ATP Loop, GAFGKVYLGQK", "result": 4.2, "unit": "%"}, {"measurement": "inhibition at 2 µM", "setting": "[12]; Labeling Site Lys1, LYAVKVVK", "result": -7.7, "unit": "%"}, {"measurement": "inhibition at 2 µM", "setting": "[13]", "result": 1.8, "unit": "%"}, {"measurement": "KiNativ in-cell binding, ULK3", "setting": "[14]", "result": -25.0}, {"measurement": "KiNativ in-cell binding, CSNK2A2", "setting": "[15]", "result": -67.6}, {"measurement": "KiNativ in-cell binding, MAP3K11", "setting": "[16]", "result": -55.2}, {"measurement": "inhibition at 2 µM", "setting": "[17]", "result": 26, "unit": "%"}, {"measurement": "KiNativ in-cell binding, GSK3A", "setting": "[18]", "result": 7.1}, {"measurement": "inhibition at 2 µM", "setting": "[19]", "result": 30.5, "unit": "%"}, {"measurement": "KiNativ in-cell binding, MLKL", "setting": "[20]", "result": -57.5}, {"measurement": "inhibition at 2 µM", "setting": "[21]", "result": 26.1, "unit": "%"}]}
